Measured values from paper PMC5316935, “Mangiferin from Pueraria tuberosa reduces inflammation via inactivation of NLRP3 inflammasome” (Scientific Reports, 2017).

Tested on: T1, COX-2
T1 construct: gene Ptgs2
Assay: chromogenic TMPD oxidation assay of COX-2 activity; RAW […] cells per figure legend
Assay type: biochemical

IC50: 40 µM
SMILES: O=c1c2cc(O)c(O)cc2oc2cc(O)c([C@@H]3O[C@H](CO)[C@@H](O)[C@H](O)[C@H]3O)c(O)c12 [PT-Mangiferin, Mangiferin]
